# Where two headings read alike, the source gives them in different places.
# Legend:
# [1] = test system: PTSD; settings: average dose 2.4 mg; military veterans with PTSD taking or not taking antidepressant; cited from earlier work
# [2] = fraction of the potency of clonidine; cited from earlier work
# [3] = test system: PTSD; settings: Case 10
# Excerpt: Given the prior history of ADHD, methylphenidate was cautiously added to the venlafaxine. […] They were referred to a specialty inpatient program for PTSD. During the inpatient program, the antidepressant was switched from venlafaxine to duloxetine.
# [4] = test system: PTSD; assay: Example 1 case summaries 1-6: tizanidine as adjunctive treatment for PTSD, anxiety, depression, psychosis or impaired cognition; format: in vivo, human
# Protocol: Treatment was begun with sertraline 100 mg per day for anxiety and nortriptyline 25 mg at bedtime for headaches. […] Treatment with tizanidine was started and the dose was increased to 8 mg at bedtime.
# Tizanidine was started and titrated up to 4 mg at bedtime along with aripiprazole (15 mg at bedtime) and clonazepam (0.5 mg daily).
# These medications included sertraline (250 mg daily), divalproex sodium (2500 mg daily), quetiapine (100 mg twice daily and 400 mg at bedtime), amitriptyline (25 mg at bedtime), and tramadol (50 mg as needed for severe headache). […] A trial of tizanidine was started and the dose was titrated up to 8 mg at bedtime.
# Pharmacologic Treatment and Response: While on the psychiatry unit, they were treated with sertraline for PTSD and nortriptyline for headaches and depression. […] They were started on tizanidine 4 mg at bedtime.
# After approximately one year, subject agreed to a trial of tizanidine as an addition to sertraline. […] They agreed to increase the dose to 4 mg at bedtime and follow-up in four weeks. […] An atypical antipsychotic medication, aripiprazole, was added to their medications.
# Treatment with tizanidine 4 mg at bedtime was added to the existing sertraline.
# [5] = test system: PTSD; assay: Example 2 case summaries 7-9: switching from once to twice-daily dosing of tizanidine
# Protocol: They were continued on aripiprazole, quetiapine, sertraline, and trazodone. Treatment with tizanidine was started for the nightmares and poor sleep.
# They were switched from tizanidine 8 mg at bedtime to tizanidine 6 mg in the morning and 8 mg at bedtime. […] They continued on the sertraline, divalproex, and trazodone for initial insomnia. The tizanidine was switched to 4 mg in the morning and 4 mg at bedtime.
# Subject was started on tizanidine up to 8 mg at bedtime for nightmares. They also were issued a device to assist with memory problems. A rating scale for common cognitive problems was administered by speech pathology prior to issuing them a personal digital assistant as a memory assist device.
# They continued to take sertraline and tizanidine. At a psychology evaluation session, subject completed two self-report instruments of PTSD and depressive symptoms to establish a baseline indication of symptom severity. […] Subject was then switched from tizanidine 8 mg at bedtime to 4 mg twice daily.
# After approximately one year of being followed in the psychiatry clinic, they became more willing to try medication and agreed to a trial of tizanidine.
# [6] = cited from earlier work
# [7] = tizanidine 4 mg twice daily with methylphenidate, after four weeks
# [8] = Case 2, tizanidine 4 mg at bedtime with aripiprazole 15 mg and clonazepam 0.5 mg, after two months
# [9] = Case 2, tizanidine 8 mg at bedtime, other medications stopped, two months later
# [10] = Case 3, tizanidine 8 mg at bedtime, after four weeks
# [11] = Case 4, tizanidine 4 mg at bedtime
# [12] = Case 5, tizanidine 2 mg at bedtime added to sertraline, several weeks
# [13] = Case 5, tizanidine 4 mg at bedtime with sertraline, four weeks
# [14] = Case 5, tizanidine 4 mg at bedtime, aripiprazole added, eight weeks later
# [15] = Case 5, tizanidine 8 mg at bedtime, not taking sertraline and aripiprazole, eight weeks
# [16] = Case 5, tizanidine 8 mg at bedtime, primary care appointment one month later
# [17] = Case 6, tizanidine 4 mg at bedtime added to sertraline, approximately four weeks
# [18] = Case 7, switched from tizanidine 8 mg at bedtime to 6 mg in the morning and 8 mg at bedtime, two months later
# [19] = Case 7, tizanidine 4 mg twice daily, one month after switch
# [20] = Case 7, tizanidine 8 mg at bedtime, four weeks
# [21] = Case 8, tizanidine 4 mg twice daily, two weeks after switch
# [22] = Case 9, trial of tizanidine, two months later
smiles,measurement,setting,value
N=C(N)NC(=O)Cc1c(Cl)cccc1Cl [guanfacine],relieving signs or symptoms of PTSD compared to placebo,[1],not effective compared to placebo
Clc1ccc2nsnc2c1NC1=NCCN1 [tizanidine],potency in lowering blood pressure relative to clonidine,[2],one-tenth to one-fiftieth
same,nightmares,[3]; [7],absence of nightmares
same,overall helpfulness,[3]; [7],extremely helpful
same,sleep,[3]; [7],greatly improved sleep
same,daytime anxiety,[3]; when taking tizanidine 4 mg twice daily,less daytime anxiety
same,daytime anxiety,"[4]; Case 1, tizanidine 8 mg at bedtime, after two weeks",less daytime anxiety
same,reduction in nightmares,"[4]; Case 1, tizanidine 8 mg at bedtime, after two weeks, subject report",~50%
same,alcohol use,[4]; [8],one to two
same,mood and energy,[4]; [8],somewhat better
same,"other signs and symptoms of Major Depression, PTSD, and Psychosis NOS",[4]; [8],unchanged
same,overall condition,[4]; [8],mildly improved
same,panic attacks,[4]; [8],had not experienced any panic attacks
same,overall condition,"[4]; Case 2, tizanidine 8 mg at bedtime, other medications stopped by subject, two months later",markedly improved
same,alcohol use,"[4]; Case 2, tizanidine 8 mg at bedtime, other medications stopped, preceding two months",had not drunk any alcohol
same,daytime anxiety,[4]; [9],less anxious during the day
same,energy,[4]; [9],improved
same,hallucinations,[4]; [9],had stopped
same,intrusive thoughts of combat or the Iraq war,[4]; [9],less frequent
same,nightmares,[4]; [9],much less frequent
same,panic attacks,[4]; [9],able to leave their house without panic attacks
same,sleep,[4]; [9],improved
same,combat-related nightmares,[4]; [10],complete absence of combat-related nightmares
same,concentration and attention during the day,[4]; [10],easier to concentrate
same,daytime anxiety,[4]; [10],substantial decrease in daytime anxiety
same,nightmares overall,[4]; [10],substantial reduction in nightmares overall
same,sleep,[4]; [10],significantly improved
same,"tremor, at rest and with action",[4]; [10],improved
same,hallucinations,"[4]; Case 3, tizanidine 8 mg at bedtime, after four weeks, quetiapine dose decreased by subject",greatly reduced
same,irritability and anxiety during the day,[4]; [11],less irritable and less anxious
same,nightmares,[4]; [11],reduced their nightmares
same,quality of sleep,[4]; [11],improved the quality of their sleep
same,nightmares,"[4]; Case 4, tizanidine 4 mg at bedtime, approximately three weeks after starting",somewhat improved
same,nightmares,[4]; [12],no change to nightmares
same,side effects or other adverse effects,[4]; [12],no side effects or other adverse effects
same,nightmares frequency,[4]; [13],3-4 times per week
same,overall condition,[4]; [13],not doing well
same,panic attacks frequency,[4]; [13],2-3 times per week
same,alcohol use,[4]; [14],one to two
same,mood and energy level,[4]; [14],an improvement in their mood and energy level
same,overall improvement,[4]; [14],limited improvement
same,remainder of PTSD and depressive symptoms,[4]; [14],unchanged
same,panic attacks,"[4]; Case 5, tizanidine 4 mg at bedtime, aripiprazole added, eight weeks later, for several weeks",free from panic attacks
same,side-effects,"[4]; Case 5, tizanidine 4 mg at bedtime, eight weeks later",no side-effects
same,alcohol consumption,[4]; [15],decreased to less than once per month
same,anxiety and energy during the day,[4]; [15],less anxious and more energetic
same,nightmares,[4]; [15],improved
same,overall improvement,[4]; [15],substantial improvement
same,panic attacks,[4]; [15],continued to be absent
same,anxiety,[4]; [16],less anxiety
same,depression,[4]; [16],improved depression
same,hallucinations,[4]; [16],denied having any hallucinations
same,nightmares,[4]; [16],decreased nightmares
same,feeling rested the next day,[4]; [17],more rested the next day
same,night sweats,[4]; [17],fewer night sweats
same,nightmares,[4]; [17],reduction in their nightmares
same,overall sleep quality,[4]; [17],improved
same,sleep time,[4]; [17],had not increased their sleep time
same,daytime anxiety,[5]; [18],greater reduction to their daytime anxiety
same,nightmares and sleep quality,[5]; [18],no change to the beneficial impact
same,nightmares,"[5]; Case 7, tizanidine 4 mg twice daily with sertraline, divalproex, trazodone, one month after switch",continued to have no nightmares
same,daytime anxiety,[5]; [19],no change to daytime anxiety
same,daytime cognition,[5]; [19],no change in daytime cognition
same,desire to smoke cigarettes,[5]; [19],definite reduction in their desire to smoke
same,mood,[5]; [19],no changes in mood
same,sleep,[5]; [19],continued to have restful sleep
same,nightmares overall,"[5]; Case 7, tizanidine 8 mg at bedtime with aripiprazole, quetiapine, sertraline, trazodone, four weeks",greatly reduced nightmares overall
same,anxiety during the day,[5]; [20],significantly less anxiety during the day
same,combat-related nightmares,[5]; [20],complete absence of combat-related nightmares
same,hallucinations,[5]; [20],fewer hallucinations
same,tremor,[5]; [20],improved tremor
same,sleep,"[5]; Case 8, switched from tizanidine 8 mg at bedtime to 4 mg twice daily, two weeks later",no change in sleep
same,"energy (new onset, gradually improving)",[5]; [21],mild decrease in energy
same,hypervigilance during the day,[5]; [21],reduced hypervigilance during the day
same,irritability during the day,[5]; [21],less irritability during the day
same,nightmares,[5]; [21],eliminates nightmares
same,feeling better the next day,"[5]; Case 8, tizanidine 8 mg at bedtime with sertraline",significant improvement
same,cognitive function,"[5]; Case 8, tizanidine up to 8 mg at bedtime with sertraline, memory assist device also issued, following weeks",improved
same,twice-daily compared to once-daily dosing,"[5]; Case 9, tizanidine 4 mg twice daily versus 8 mg at bedtime, same total milligrams",clear superiority of twice-daily
same,cognitive symptoms,[5]; [22],unchanged
same,headaches,[5]; [22],much less intense
same,mood and energy,[5]; [22],improved
same,sleep,[5]; [22],better
same,anxiety,"[5]; Case 9, trial of tizanidine, two months later, still startled easily and hypervigilant",less anxiety
same,peak serum levels,[6]; single 4 mg capsule,~4.0 ng/mL
same,peak serum levels,[6]; single 4 mg tablet,about 2.7 ng/ml
